Assay results: ChEMBL document CHEMBL1140791, “Design and identification of selective HER-2 sheddase inhibitors via P1' manipulation and unconventional P2' perturbations to induce a molecular metamorphosis” (Bioorg Med Chem Lett, 2008)
Calls of active or inactive are those of the source. No cut-off for these calls is given here.

Key:
[1] = biological target: T1, Disintegrin and metalloproteinase domain-containing protein 10 (Homo sapiens, UniProt O14672); assay: (§1) Inhibition of HER2 sheddase in BT474 cells by extracellular domain shedding assay; format: cell-based, BT-474
T1 sequence (O14672 whole entry): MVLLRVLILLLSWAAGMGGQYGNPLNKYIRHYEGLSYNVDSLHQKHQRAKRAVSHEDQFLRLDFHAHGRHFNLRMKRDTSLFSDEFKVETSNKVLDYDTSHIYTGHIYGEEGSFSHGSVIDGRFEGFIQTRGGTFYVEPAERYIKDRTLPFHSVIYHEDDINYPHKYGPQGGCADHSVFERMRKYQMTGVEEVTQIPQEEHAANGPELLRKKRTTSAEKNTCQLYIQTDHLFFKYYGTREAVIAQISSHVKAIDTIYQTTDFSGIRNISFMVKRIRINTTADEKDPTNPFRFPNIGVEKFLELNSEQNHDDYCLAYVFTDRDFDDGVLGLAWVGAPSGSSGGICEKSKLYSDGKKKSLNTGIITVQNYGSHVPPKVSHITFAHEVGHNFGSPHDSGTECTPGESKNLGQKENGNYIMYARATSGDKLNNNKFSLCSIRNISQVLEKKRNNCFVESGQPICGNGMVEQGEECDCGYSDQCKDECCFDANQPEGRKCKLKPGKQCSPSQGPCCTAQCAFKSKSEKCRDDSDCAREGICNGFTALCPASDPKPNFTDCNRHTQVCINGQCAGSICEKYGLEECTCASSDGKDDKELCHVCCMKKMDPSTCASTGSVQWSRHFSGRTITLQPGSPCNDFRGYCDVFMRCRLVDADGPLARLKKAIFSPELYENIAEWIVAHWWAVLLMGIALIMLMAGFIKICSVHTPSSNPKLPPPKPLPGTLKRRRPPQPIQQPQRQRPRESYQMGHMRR

[2] = biological target: T1, Disintegrin and metalloproteinase domain-containing protein 10; assay: Binding affinity to ADAM10
Interstitial collagenase = biological target: T2, Interstitial collagenase (Homo sapiens, UniProt P03956); assay: Binding affinity to MMP1
T2 sequence (P03956 whole entry): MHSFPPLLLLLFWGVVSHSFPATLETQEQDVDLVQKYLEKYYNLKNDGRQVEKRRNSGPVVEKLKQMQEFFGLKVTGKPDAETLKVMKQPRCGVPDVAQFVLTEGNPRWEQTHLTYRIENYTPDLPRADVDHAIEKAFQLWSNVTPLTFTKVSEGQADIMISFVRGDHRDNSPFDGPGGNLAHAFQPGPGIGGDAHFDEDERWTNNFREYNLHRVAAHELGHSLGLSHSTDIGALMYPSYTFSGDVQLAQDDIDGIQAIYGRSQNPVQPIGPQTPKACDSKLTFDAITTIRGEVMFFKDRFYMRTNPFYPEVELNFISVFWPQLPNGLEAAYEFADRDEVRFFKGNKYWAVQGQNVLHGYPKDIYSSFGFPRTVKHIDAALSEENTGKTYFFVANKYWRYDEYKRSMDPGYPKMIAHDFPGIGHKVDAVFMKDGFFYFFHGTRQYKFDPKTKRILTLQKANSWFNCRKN

[3] = biological target: 72 kDa type IV collagenase (Homo sapiens, UniProt P08253); assay: Binding affinity to MMP2
Stromelysin-1 = Stromelysin-1 (Homo sapiens, UniProt P08254); assay: Binding affinity to MMP3
[4] = biological target: Matrix metalloproteinase-9 (Homo sapiens, UniProt P14780); assay: Binding affinity to MMP9
[5] = biological target: T3, Disintegrin and metalloproteinase domain-containing protein 10 (Homo sapiens) (UniProt O14672); assay: as §1; format: cell-based; conditions: BT-474
T3 sequence (whole entry): T1 sequence (O14672 whole entry)

[6] = Selectivity for ADAM10 over MMP2
[7] = Selectivity for ADAM10 over MMP9
[8] = Selectivity for ADAM10 over MMP3
[9] = Selectivity for ADAM10 over MMP1
Plasma = assay: Protein binding in human plasma assessed as unbound fraction; format: ADME, cell-free
[10] = AUC (0 to 24 hrs) in mouse at 10 mg/kg, po; format: ADME, organism-based; set-up: time < 24 hr, dose 10 mg/kg, route oral; conditions: plasma
[11] = Cmax in mouse at 10 mg/kg, po; format: ADME, organism-based; set-up: dose 10 mg/kg, route oral; conditions: in vivo
[12] = Half life in mouse; format: ADME, organism-based; conditions: in vivo

Sequence of Stromelysin-1 (P08254 whole entry): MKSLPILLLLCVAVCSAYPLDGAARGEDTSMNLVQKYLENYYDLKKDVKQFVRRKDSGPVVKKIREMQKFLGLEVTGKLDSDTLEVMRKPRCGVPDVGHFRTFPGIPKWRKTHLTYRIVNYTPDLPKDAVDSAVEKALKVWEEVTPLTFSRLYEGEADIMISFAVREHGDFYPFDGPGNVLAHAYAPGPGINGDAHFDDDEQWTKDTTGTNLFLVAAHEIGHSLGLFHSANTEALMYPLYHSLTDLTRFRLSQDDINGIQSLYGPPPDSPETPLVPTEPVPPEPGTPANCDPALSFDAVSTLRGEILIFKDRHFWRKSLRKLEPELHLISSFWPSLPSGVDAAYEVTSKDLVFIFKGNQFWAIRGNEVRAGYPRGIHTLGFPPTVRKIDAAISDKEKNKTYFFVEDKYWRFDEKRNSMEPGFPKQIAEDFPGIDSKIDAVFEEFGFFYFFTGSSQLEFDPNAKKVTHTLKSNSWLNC
Sequence of Matrix metalloproteinase-9 (P14780 whole entry, the tested form may be a part): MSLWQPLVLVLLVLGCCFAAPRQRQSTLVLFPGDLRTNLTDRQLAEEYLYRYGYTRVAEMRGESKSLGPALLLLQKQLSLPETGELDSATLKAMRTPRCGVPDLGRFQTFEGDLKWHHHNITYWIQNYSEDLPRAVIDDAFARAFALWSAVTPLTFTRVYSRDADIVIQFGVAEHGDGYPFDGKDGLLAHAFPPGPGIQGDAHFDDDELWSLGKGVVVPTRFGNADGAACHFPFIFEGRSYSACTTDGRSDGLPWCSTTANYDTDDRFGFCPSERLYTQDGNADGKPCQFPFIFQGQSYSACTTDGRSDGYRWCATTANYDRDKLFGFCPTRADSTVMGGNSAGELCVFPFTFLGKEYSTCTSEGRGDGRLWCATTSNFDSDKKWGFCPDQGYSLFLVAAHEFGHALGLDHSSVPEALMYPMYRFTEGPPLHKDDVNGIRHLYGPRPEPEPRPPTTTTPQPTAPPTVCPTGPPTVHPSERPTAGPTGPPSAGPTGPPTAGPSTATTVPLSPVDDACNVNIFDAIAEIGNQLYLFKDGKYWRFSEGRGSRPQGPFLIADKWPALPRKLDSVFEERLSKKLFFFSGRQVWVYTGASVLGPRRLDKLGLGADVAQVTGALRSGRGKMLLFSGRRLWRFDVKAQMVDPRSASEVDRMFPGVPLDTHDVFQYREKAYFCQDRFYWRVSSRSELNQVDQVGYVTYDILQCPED
Sequence of 72 kDa type IV collagenase (P08253 whole entry): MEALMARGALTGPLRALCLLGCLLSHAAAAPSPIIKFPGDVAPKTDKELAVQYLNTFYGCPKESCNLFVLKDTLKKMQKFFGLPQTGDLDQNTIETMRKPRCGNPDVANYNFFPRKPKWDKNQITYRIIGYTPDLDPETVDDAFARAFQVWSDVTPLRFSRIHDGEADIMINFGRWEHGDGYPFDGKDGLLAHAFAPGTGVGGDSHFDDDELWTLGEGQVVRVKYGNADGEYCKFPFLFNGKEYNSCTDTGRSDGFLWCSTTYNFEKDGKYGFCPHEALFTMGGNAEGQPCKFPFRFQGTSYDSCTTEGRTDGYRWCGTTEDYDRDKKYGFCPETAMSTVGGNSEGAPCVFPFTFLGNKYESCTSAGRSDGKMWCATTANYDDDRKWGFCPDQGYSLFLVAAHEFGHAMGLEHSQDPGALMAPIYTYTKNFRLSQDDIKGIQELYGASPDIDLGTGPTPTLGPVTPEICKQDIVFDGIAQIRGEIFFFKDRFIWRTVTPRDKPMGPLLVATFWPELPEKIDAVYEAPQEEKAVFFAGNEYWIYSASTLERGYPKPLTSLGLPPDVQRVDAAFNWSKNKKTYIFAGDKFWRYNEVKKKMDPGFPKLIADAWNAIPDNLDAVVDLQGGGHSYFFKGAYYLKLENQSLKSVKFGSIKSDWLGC

Compound | IC50 [1] [µM] | IC50 [2] [µM] | IC50 (Interstitial collagenase) [µM] | IC50 [3] [µM] | IC50 (Stromelysin-1) [µM] | IC50 [4] [µM] | also measured
Cc1cccc(C2CCN(C(=O)[C@H]3NCC4(CC4)C[C@@H]3C(=O)NO)CC2)c1 | 0.689 | 0.194 | > 5 | 0.391 | > 5 | 0.604 | 
Cc1cccc(C2=CCN(C(=O)[C@H]3NCC4(CC4)C[C@@H]3C(=O)NO)CC2)c1 | 0.042 | 0.025 | 1.89 | 0.013 | 0.359 | 0.111 | 
COC(=O)N1CC2(CC2)C[C@H](C(=O)NO)[C@H]1C(=O)N1CC=C(c2ccccc2)C1 | 0.034 | 0.026 | > 5 | 0.488 | > 5 | 3.05 | Ratio IC50 [6]: 37; Ratio IC50 [7]: 40; Ratio IC50 [8]: 11; Ratio IC50 [9]: 2; PPB (Plasma): 34%; AUC(0-t) at 24 h [10]: 2.8 µM·h; Cmax [11]: 3000 nM; half-life [12]: 1.8 h
CC(C)c1cc(C2=CCN(C(=O)[C@H]3NCC4(CC4)C[C@@H]3C(=O)NO)CC2)ccc1C#N | 0.902 | 0.154 |  | 2.5 |  |  | 
COC(=O)N1CC2(CC2)C[C@H](C(=O)NO)[C@H]1C(=O)N1CCC(c2ccccc2)C1 (some centres undefined) | 0.289 | 0.081 |  | > 5 |  |  | 
O=C(NO)[C@H]1CC2(CC2)CN[C@@H]1C(=O)N1CCC(c2ccccc2)C1 (some centres undefined) |  |  | > 5 | 0.96 | > 3 | > 3 | 
CS(=O)(=O)N1CC2(CC2)C[C@H](C(=O)NO)[C@H]1C(=O)N1CC=C(c2ccccc2)CC1 | 0.093 | 0.051 | > 5 | 0.053 | > 5 | 0.677 | 
O=C(NO)[C@H]1CC2(CC2)CN[C@@H]1C(=O)N1CC=C(c2cc(F)cc(F)c2)CC1 | 0.024 | 0.015 | > 5 | 0.014 | > 5 | 0.916 | 
CC(C)c1cccc(C2=CCN(C(=O)[C@H]3NCC4(CC4)C[C@@H]3C(=O)NO)CC2)c1 | 0.229 | 0.073 | > 5 | 1.1 | 5 | 2.5 | Ratio IC50 [6]: > 15; Ratio IC50 [7]: 10; Ratio IC50 [8]: 2
Cc1cc(N2CCN(C(=O)[C@H]3NCC4(CC4)C[C@@H]3C(=O)NO)CC2)ccc1C#N | 0.594 | 0.038 |  | < 0.005 |  |  | 
O=C(NO)[C@H]1CC2(CC2)CN[C@@H]1C(=O)N1CC=C(c2cc(Cl)cc(Cl)c2)CC1 |  | 0.099 |  | 5 |  |  | Activity [5]: inactive
Cc1cc(C2=CCN(C(=O)[C@H]3NCC4(CC4)C[C@@H]3C(=O)NO)CC2)cc(C)c1C#N | 0.129 | 0.028 | > 5 | 0.159 | 3.5 | > 5 | 
O=C(NO)[C@H]1CC2(CC2)CN(C(=O)OCc2ccccc2)[C@@H]1C(=O)N1CC=C(c2ccccc2)CC1 | 0.431 | 0.034 | > 5 | 0.037 | 1.67 | 0.309 | 
CCc1cccc(C2=CCN(C(=O)[C@H]3NCC4(CC4)C[C@@H]3C(=O)NO)CC2)c1 | 0.24 | 0.033 | > 5 | 0.021 |  | 0.19 | 

The next lines start with results.

IC50 [1] [µM] | IC50 [2] [µM] | IC50 (Interstitial collagenase) [µM] | IC50 [3] [µM] | IC50 (Stromelysin-1) [µM] | IC50 [4] [µM] | Compound | also measured
0.086 | 0.085 | > 5 | 0.433 | > 5 | > 5 | Cc1cc(C)cc(C2=CCN(C(=O)[C@H]3NCC4(CC4)C[C@@H]3C(=O)NO)CC2)c1 | 
0.045 | 0.027 | > 5 | 0.086 | > 5 | 1.5 | CS(=O)(=O)N1CC2(CC2)C[C@H](C(=O)NO)[C@H]1C(=O)N1CCN(c2ccccc2)CC1 | 
 | 1.1 | > 5 | > 5 |  |  | CC(C)c1cccc(N2CCN(C(=O)[C@H]3NCC4(CC4)C[C@@H]3C(=O)NO)CC2)c1 | Activity [5]: inactive
0.137 |  |  |  |  |  | O=C(NO)[C@H]1CC2(CC2)CN[C@@H]1C(=O)N1CCC(c2ccccc2)CC1 | 
0.139 | 0.016 |  | 1.39 | > 5 |  | CC(C)c1cccc(C2CCN(C(=O)[C@H]3NCC4(CC4)C[C@@H]3C(=O)NO)CC2)c1 | 
0.042 | 0.014 |  | 0.032 |  |  | O=C(NO)[C@H]1CC2(CC2)CN[C@@H]1C(=O)N1CCN(c2cccc(Cl)c2)CC1 | 
0.194 | 0.04 | > 5 | 0.05 |  | 0.11 | COc1cccc(C2=CCN(C(=O)[C@H]3NCC4(CC4)C[C@@H]3C(=O)NO)CC2)c1 | 
 | 0.048 |  | 0.024 |  |  | O=C(NO)[C@H]1CC2(CC2)CN[C@@H]1C(=O)N1CC=C(c2cccc(C3CC3)c2)CC1 | 
0.013 |  |  |  |  |  | O=C(NO)[C@H]1CC2(CC2)CN[C@@H]1C(=O)N1CC=C(c2ccccc2)C1 | 
0.169 | 0.019 |  | 0.472 |  |  | COC(=O)N1CC2(CC2)C[C@H](C(=O)NO)[C@H]1C(=O)N1CCC(c2ccccc2)CC1 | 
0.072 | 0.04 | > 5 | 0.05 | > 5 | 0.16 | CC(=O)N1CC2(CC2)C[C@H](C(=O)NO)[C@H]1C(=O)N1CC=C(c2ccccc2)CC1 | 
0.184 | 0.187 | > 5 | 0.063 | > 1 | 1.27 | Cc1cccc(N2CCN(C(=O)[C@H]3NCC4(CC4)C[C@@H]3C(=O)NO)CC2)c1 | 
0.026 | 0.037 | > 5 | 0.106 | 4 | 2.62 | O=C(NO)[C@H]1CC2(CC2)CN(C(=O)OC2CCOCC2)[C@@H]1C(=O)N1CCN(c2ccccc2)CC1 | 
0.15 | 0.019 | > 5 | 0.035 | 2.6 | 0.451 | CC(C)COC(=O)N1CC2(CC2)C[C@H](C(=O)NO)[C@H]1C(=O)N1CC=C(c2ccccc2)CC1 | 
